US20250346585A1 (Alexion Pharmaceuticals, Inc., priority 2022, published 2025)
Where two headings read alike, the source gives them in different places.

Molecular target: Human complement C1s enzyme (Homo sapiens (Human), UniProt P09871)
Experiment: Human C1s enzyme assay
Format: biochemical
Conditions: read-out: IC50 (Stars)
In short: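 Purified serum-derived human C1s (1.16 nM final) preincubated 5 min at room temperature with compound in 50 mM Tris, 1 M NaCl, pH 7.5. Z-L-Lys-SBzl thioester substrate and DTNB added (100 μM each, final); A405 read every 30 s for 30 min. IC50 from nonlinear regression of reaction rates against compound concentration.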

[1] = Human complement C1s enzyme 1.16 nM, substrate Z-L-Lys-SBzl 100 μM, assay of Example 3
[2] = Human C1s enzyme assay of Example 3

Chain of Human complement C1s enzyme (P09871 438-688 limits assumed): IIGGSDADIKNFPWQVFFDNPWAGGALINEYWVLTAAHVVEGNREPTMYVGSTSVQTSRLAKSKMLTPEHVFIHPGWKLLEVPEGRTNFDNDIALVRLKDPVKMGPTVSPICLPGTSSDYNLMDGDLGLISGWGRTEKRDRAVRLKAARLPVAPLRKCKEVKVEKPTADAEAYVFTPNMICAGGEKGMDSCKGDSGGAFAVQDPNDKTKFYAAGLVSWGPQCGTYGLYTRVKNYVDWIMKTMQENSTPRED
Chain of Human complement C1s enzyme (P09871 16-437 partner limits assumed): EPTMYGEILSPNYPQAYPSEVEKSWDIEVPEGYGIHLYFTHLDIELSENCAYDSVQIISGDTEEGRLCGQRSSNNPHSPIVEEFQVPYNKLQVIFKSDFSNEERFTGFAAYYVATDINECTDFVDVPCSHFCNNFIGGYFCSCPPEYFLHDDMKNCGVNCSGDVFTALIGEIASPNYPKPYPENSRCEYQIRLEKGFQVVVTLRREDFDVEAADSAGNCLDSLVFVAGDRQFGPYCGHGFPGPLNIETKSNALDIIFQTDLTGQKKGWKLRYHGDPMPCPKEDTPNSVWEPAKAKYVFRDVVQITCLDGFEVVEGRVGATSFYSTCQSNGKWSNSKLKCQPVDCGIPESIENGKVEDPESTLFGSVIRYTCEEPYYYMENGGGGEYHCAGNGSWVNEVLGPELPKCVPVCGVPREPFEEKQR

Row | IC50 [1] [nM] | IC50 [2] [nM] | Structure (SMILES) | also measured
1 | < 100 |  | C[C@@H](NC(=O)[C@@H]1CC2(CN1C(=O)CNC(=O)c1ccc3c(c1)-c1ccccc1S3(=O)=O)OCCO2)c1cc(C(=N)N)cs1 [Compound 261, (S)—N—((R)-1-(4-carbamimidoylthiophen-2-yl)ethyl)-7-((5,5-dioxidodibenzo[b,d]thiophene-2-carbonyl)glycyl)-1,4-dioxa-7-azaspiro[4.4]nonane-8-carboxamide] | 
2 | < 100 |  | C[C@@H](NC(=O)[C@@H]1C[C@](F)(CO)CN1C(=O)CNC(=O)c1ccc2c(c1)-c1ccccc1C2(F)F)c1cc(C(=N)N)cs1 [Compound 292, (2S,4R)—N—((R)-1-(4-carbamimidoylthiophen-2-yl)ethyl)-1-((9,9-difluoro-9H-fluorene-3-carbonyl)glycyl)-4-fluoro-4-(hydroxymethyl)pyrrolidine-2-carboxamide] | 
3 |  | < 100 | C[C@@H](NC(=O)[C@@H]1CC2(CN1C(=O)CNC(=O)c1ccc(-c3ccc(Cl)cc3F)cc1)OCCO2)c1cc(C(=N)N)cs1 [Compound 174, (S)—N—((R)-1-(4-carbamimidoylthiophen-2-yl)ethyl)-7-((4′-chloro-2′-fluoro-[1,1′-biphenyl]-4-carbonyl)glycyl)-1,4-dioxa-7-azaspiro[4.4]nonane-8-carboxamide] | 
4 | > 1000 |  | Nc1csc(CNC(=O)[C@@H]2CC3(CN2C(=O)CNC(=O)c2ccc(Oc4ccc(F)cc4)cc2)OCCO3)c1 [Compound 244, (S)—N-((4-aminothiophen-2-yl)methyl)-7-((4-(4-fluorophenoxy)benzoyl)glycyl)-1,4-dioxa-7-azaspiro[4.4]nonane-8-carboxamide] | 
5 | < 100 |  | COC(=O)/N=C(/N)c1csc([C@@H](C)NC(=O)[C@@H]2C[C@](F)(CF)CN2C(=O)CNC(=O)c2ccc(Oc3ccc(F)cc3)cc2)c1 [Compound 233, methyl ((E)-amino(5-((R)-1-((2S,4R)-4-fluoro-4-(fluoromethyl)-1-((4-(4-fluorophenoxy)benzoyl)glycyl)pyrrolidine-2-carboxamido)ethyl)thiophen-3-yl)methylene)carbamate] | 
6 | < 100 |  | C[C@@H](NC(=O)[C@@H]1C[C@@H](OC(F)F)CN1C(=O)CN1Cc2cc(-c3ccccc3)ccc2C1=O)c1cc(C(=N)N)cs1 [Compound 385, (2S,4R)—N—((R)-1-(4-carbamimidoylthiophen-2-yl)ethyl)-4-(difluoromethoxy)-1-(2-(1-oxo-5-phenylisoindolin-2-yl)acetyl)pyrrolidine-2-carboxamide] | 
7 | < 100 |  | C[C@@H](NC(=O)[C@@H]1CC2(CN1C(=O)CNC(=O)c1ccc3c(c1)-c1cc(F)ccc1C3(F)F)OCCO2)c1cc(C(=N)N)cs1 [Compound 225, (S)—N—((R)-1-(4-carbamimidoylthiophen-2-yl)ethyl)-7-((6,9,9-trifluoro-9H-fluorene-3-carbonyl)glycyl)-1,4-dioxa-7-azaspiro[4.4]nonane-8-carboxamide] | 
8 |  | < 100 | C[C@@H](NC(=O)[C@@H]1CC2(CN1C(=O)CNC(=O)c1ccc(-c3ccc(F)cc3)cn1)OCCO2)c1cc(C(=N)N)cs1 [Compound 163, (S)—N—((R)-1-(4-carbamimidoylthiophen-2-yl)ethyl)-7-((5-(4-fluorophenyl)picolinoyl)glycyl)-1,4-dioxa-7-azaspiro[4.4]nonane-8-carboxamide] | 
9 | < 100 |  | C[C@@H](NC(=O)[C@@H]1C[C@@H](S(C)(=O)=O)CN1C(=O)CNC(=O)c1cccc(-c2ccc(F)cc2)c1)c1cc(C(=N)N)cs1 [Compound 334, (2S,4R)—N—((R)-1-(4-carbamimidoylthiophen-2-yl)ethyl)-1-((4′-fluoro-[1,1′-biphenyl]-3-carbonyl)glycyl)-4-(methylsulfonyl)pyrrolidine-2-carboxamide] | 
10 | < 100 |  | C[C@@H](NC(=O)[C@@H]1C[C@@H](S(C)(=O)=O)CN1C(=O)CNC(=O)c1ccc2c(c1)C(C)(C)c1ccccc1-2)c1cc(C(=N)N)cs1 [Compound 369, (2S,4R)—N—((R)-1-(4-carbamimidoylthiophen-2-yl)ethyl)-1-((9,9-dimethyl-9H-fluorene-2-carbonyl)glycyl)-4-(methylsulfonyl)pyrrolidine-2-carboxamide] | 
11 |  | < 100 | C[C@@H](NC(=O)[C@@H]1CC2(CN1C(=O)CNC(=O)c1cc(F)c(-c3ccc(F)cc3)cn1)OCCO2)c1cc(C(=N)N)cs1 [Compound 181, (S)—N—((R)-1-(4-carbamimidoylthiophen-2-yl)ethyl)-7-((4-fluoro-5-(4-fluorophenyl)picolinoyl)glycyl)-1,4-dioxa-7-azaspiro[4.4]nonane-8-carboxamide] | 
12 | < 100 |  | C[C@@H](NC(=O)[C@@H]1C[C@]2(C)C[C@@H]2N1C(=O)CNC(=O)c1ccc(Oc2ccccc2)cc1)c1cc(CC(=N)N)cs1 [Compound 276, (1S,3S,5S)—N—((R)-1-(4-(2-amino-2-iminoethyl)thiophen-2-yl)ethyl)-5-methyl-2-((4-phenoxybenzoyl)glycyl)-2-azabicyclo[3.1.0]hexane-3-carboxamide] | 
13 |  |  | CC1c2ccccc2-c2cc(C(=O)NCC(=O)N3C[C@@](F)(CF)C[C@H]3C(=O)N[C@H](C)c3cc(C(=N)N)cs3)ccc21 (stereo partly drawn) [Compound 417, (2S,4R)—N—((R)-1-(4-carbamimidoylthiophen-2-yl)ethyl)-4-fluoro-4-(fluoromethyl)-1-((9-methyl-9H-fluorene-3-carbonyl)glycyl)pyrrolidine-2-carboxamide] | IC50 (Human complement C1s enzyme 1.16 nM, substrate Z-L-Lys-SBzl, assay of Example 3): < 100 nM
14 |  | < 100 | N=C(N)c1csc(CNC(=O)[C@@H]2CC3(CN2C(=O)CNC(=O)c2ccc(-c4ccc(F)cc4)cc2)OCCO3)c1 [Compound 73, (S)—N-((4-carbamimidoylthiophen-2-yl)methyl)-7-((4′-fluoro-[1,1′-biphenyl]-4-carbonyl)glycyl)-1,4-dioxa-7-azaspiro[4.4]nonane-8-carboxamide] | 
15 | < 100 |  | N=C(N)c1csc(CNC(=O)[C@@H]2CC3(CN2C(=O)CNC(=O)c2ccc(-c4cc(Cl)cc(Cl)c4)cc2)OCCO3)c1 [Compound 208, (S)—N-((4-carbamimidoylthiophen-2-yl)methyl)-7-((3′,5′-dichloro-[1,1′-biphenyl]-4-carbonyl)glycyl)-1,4-dioxa-7-azaspiro[4.4]nonane-8-carboxamide] | 
16 | < 100 |  | CCCCCCOC(=O)/N=C(/N)c1csc([C@@H](C)NC(=O)[C@@H]2C[C@](F)(COC)CN2C(=O)CNC(=O)c2ccc3c(c2)-c2ccccc2C3(F)F)c1 [Compound 249, hexyl ((E)-amino(5-((R)-1-((2S,4R)-1-((9,9-difluoro-9H-fluorene-3-carbonyl)glycyl)-4-fluoro-4-(methoxymethyl)pyrrolidine-2-carboxamido)ethyl)thiophen-3-yl)methylene)carbamate] | 
17 |  | < 100 | C[C@@H](NC(=O)[C@@H]1CC2(CN1C(=O)CNC(=O)c1ccc3[nH]c4ccccc4c3c1)OCCO2)c1cc(C(=N)N)cs1 [Compound 170, (S)-7-((9H-carbazole-3-carbonyl)glycyl)-N—((R)-1-(4-carbamimidoylthiophen-2-yl)ethyl)-1,4-dioxa-7-azaspiro[4.4]nonane-8-carboxamide] | 
18 |  | < 100 | COC[C@H]1C[C@@H](C(=O)N[C@H](C)c2cc(C(=N)N)cs2)N(C(=O)CNC(=O)c2ccc(Oc3ccc(F)cc3)cc2)C1 (relative stereo) [Compound 80, (2S,4S*)—N—((R)-1-(4-carbamimidoylthiophen-2-yl)ethyl)-1-((4-(4-fluorophenoxy)benzoyl)glycyl)-4-(methoxymethyl)pyrrolidine-2-carboxamide] | 
19 |  | < 100 | C[C@@H](NC(=O)[C@@H]1C[C@](F)(CF)CN1C(=O)CNC(=O)c1ccc2c(c1)-c1ccccc1C2(F)F)c1ccc(C(=N)N)s1 [Compound 33, (2S,4R)—N—((R)-1-(5-carbamimidoylthiophen-2-yl)ethyl)-1-((9,9-difluoro-9H-fluorene-3-carbonyl)glycyl)-4-fluoro-4-(fluoromethyl)pyrrolidine-2-carboxamide] | 
20 |  | > 1000 | O=C(NCC(=O)N1CC2(C[C@H]1C(=O)NCc1cc(Br)cs1)OCCO2)c1ccc(Oc2ccc(F)cc2)cc1 [Compound 75, (S)—N-((4-bromothiophen-2-yl)methyl)-7-((4-(4-fluorophenoxy)benzoyl)glycyl)-1,4-dioxa-7-azaspiro[4.4]nonane-8-carboxamide] | 
21 |  | < 100 | Cc1ccc(-c2cnc(C(=O)NCC(=O)N3CC4(C[C@H]3C(=O)NCc3cc(C(=N)N)cs3)OCCO4)c(F)c2)cc1 [Compound 102, (S)—N-((4-carbamimidoylthiophen-2-yl)methyl)-7-((3-fluoro-5-(p-tolyl)picolinoyl)glycyl)-1,4-dioxa-7-azaspiro[4.4]nonane-8-carboxamide] | 
22 | < 100 |  | C[C@@H](NC(=O)[C@@H]1CC2(CN1C(=O)CCC(=O)c1ccc(-c3ccccc3)cc1)OCCO2)c1cc(C(=N)N)cs1 [Compound 345, (S)-7-(4-([1,1′-biphenyl]-4-yl)-4-oxobutanoyl)-N—((R)-1-(4-carbamimidoylthiophen-2-yl)ethyl)-1,4-dioxa-7-azaspiro[4.4]nonane-8-carboxamide] | 
23 | < 100 |  | C[C@@H](NC(=O)[C@@H]1CC2(CN1C(=O)CNC(=O)c1ncc(-c3ccccc3)cc1F)OCCO2)c1cc(C(=N)N)cs1 [Compound 347, (S)—N—((R)-1-(4-carbamimidoylthiophen-2-yl)ethyl)-7-((3-fluoro-5-phenylpicolinoyl)glycyl)-1,4-dioxa-7-azaspiro[4.4]nonane-8-carboxamide] | 

Row | Structure (SMILES) | IC50 [1] [nM] | IC50 [2] [nM] | also measured
24 | Cc1ccc2c(c1)-c1cc(C(=O)NCC(=O)N3CC4(C[C@H]3C(=O)N[C@H](C)c3cc(C(=N)N)cs3)OCCO4)ccc1C2(F)F [Compound 180, (S)—N—((R)-1-(4-carbamimidoylthiophen-2-yl)ethyl)-7-((9,9-difluoro-6-methyl-9H-fluorene-3-carbonyl)glycyl)-1,4-dioxa-7-azaspiro[4.4]nonane-8-carboxamide] |  | < 100 | 
